Test results taken from the supplement of paper PMC12137928.
Structures can show the parent of a compound that is named as a salt.

Test system: HCT116
Details: 72 h
In short: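 After seeding at 250 cells per well in 1536-well plates, HCT116 cells were given 5 h to attach. CellTiter-Glo luminescence, scaled to 0% for vehicle and -100% for positive control, was pattern-corrected. Fitting with a four-parameter Hill model produced IC50 and maximal efficacy.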

Structure (SMILES)	IC50 cell viability (ICRF193 0 nM)	IC50 cell viability (ICRF193 200 nM)
CC1(C)O[C@@H]2C[C@H]3[C@@H]4C[C@H](F)C5=CC(=O)CC[C@]5(C)[C@H]4[C@@H](O)C[C@]3(C)[C@]2(C(=O)CO)O1 [Flurandrenolide]	> 45.8 µM	> 45.8 µM
C[N+]1(CCF)[C@@H]2CC[C@H]1C[C@@H](OC(=O)C(O)(c1ccccc1)c1ccccc1)C2 (stereo partly specified) [Flutropium bromide]	> 45.8 µM	> 45.8 µM
COCCCC/C(=N\OCCN)c1ccc(C(F)(F)F)cc1 [Fluvoxamine]	> 45.8 µM	> 45.8 µM
Cc1cn[nH]c1 [Fomepizole]	> 45.8 µM	> 45.8 µM
O=c1[nH]cnc2c([C@@H]3N[C@H](CO)[C@@H](O)[C@H]3O)c[nH]c12 [Forodesine (hydrochloride)]	> 45.8 µM	> 45.8 µM
O=C(O)P(=O)(O)O [Foscarnet trisodium]	> 45.8 µM	> 45.8 µM
CCOP(=O)(OCC)C(C)NC(=O)N(CCCl)N=O (stereo unspecified) [Fotemustine]	> 45.8 µM	> 45.8 µM
N[C@@H](CSCCCO)C(=O)O [Fudosteine]	> 45.8 µM	> 45.8 µM
C[C@]12CC[C@@H]3c4ccc(O)cc4C[C@@H](CCCCCCCCC[S+]([O-])CCCC(F)(F)C(F)(F)F)[C@H]3[C@@H]1CC[C@@H]2O (stereo partly specified) [Fulvestrant]	> 45.8 µM	> 45.8 µM
CO[C@@H]1[C@H](OC(=O)/C=C/C=C/C=C/C=C/C(=O)O)CC[C@]2(CO2)[C@H]1[C@@]1(C)O[C@@H]1CC=C(C)C [Fumagillin]	> 45.8 µM	> 45.8 µM
O=C1OCCN1/N=C/c1ccc([N+](=O)[O-])o1 [Furazolidone]	> 45.8 µM	> 45.8 µM
CC(=O)O[C@H]1C[C@@]2(C)[C@@H](C[C@@H](O)[C@H]3[C@@]4(C)CC[C@@H](O)[C@@H](C)[C@@H]4CC[C@@]32C)/C1=C(\CCC=C(C)C)C(=O)O [Fusidic Acid (sodium salt)]	> 45.8 µM	> 45.8 µM
CN[C@@H]1[C@@H](O)[C@@H](O[C@@H]2[C@@H](O)[C@H](O[C@H]3O[C@H](CN)CC[C@H]3N)[C@@H](N)C[C@H]2N)OC[C@]1(C)O.CN[C@@H]1[C@@H](O)[C@@H](O[C@@H]2[C@@H](O)[C@H](O[C@H]3O[C@H]([C@@H](C)N)CC[C@H]3N)[C@@H](N)C[C@H]2N)OC[C@]1(C)O.CN[C@@H]1[C@@H](O)[C@@H](O[C@@H]2[C@@H](O)[C@H](O[C@H]3O[C@H]([C@@H](C)NC)CC[C@H]3N)[C@@H](N)C[C@H]2N)OC[C@]1(C)O [GENTAMICIN SULFATE]	> 45.8 µM	> 45.8 µM
CCCCCCCCCCCC(=O)OCC(O)CO (stereo unspecified) [GLYCERYL LAURATE]	> 45.8 µM	> 45.8 µM
CC(C)OC(=O)[C@H](C)N[P@](=O)(CO[C@H](C)Cn1cnc2c(N)ncnc21)Oc1ccccc1 [GS-7340]	> 45.8 µM	> 45.8 µM
NCC1(CC(=O)O)CCCCC1 [Gabapentin]	> 45.8 µM	> 45.8 µM
COc1ccc2c3c1O[C@H]1C[C@@H](O)C=C[C@@]31CCN(C)C2 [Galanthamine]	> 45.8 µM	> 45.8 µM

Structure (SMILES)	IC50 cell viability (ICRF193 0 nM)	IC50 cell viability (ICRF193 200 nM)
O=C(O)c1cc(O)c(O)c(O)c1 [Gallic acid]	> 45.8 µM	> 45.8 µM
COc1ccc(CCN(C)CCCC(C#N)(c2cc(OC)c(OC)c(OC)c2)C(C)C)cc1OC (stereo unspecified) [Gallopamil hydrochloride]	> 45.8 µM	> 45.8 µM
CCCN1C[C@H](C)[C@@H](O)[C@](C)(O)[C@@H](CC)OC(=O)[C@H](C)[C@@H](O[C@H]2C[C@@](C)(OC)[C@@H](O)[C@H](C)O2)[C@H](C)[C@@H](O[C@@H]2O[C@H](C)C[C@H](N(C)C)[C@H]2O)[C@](C)(O)C[C@H]1C [Gamithromycin]	> 45.8 µM	> 45.8 µM
CCCCC/C=C\C/C=C\C/C=C\CCCCC(=O)O [Gamolenic acid]	> 45.8 µM	> 45.8 µM
Nc1nc2c(ncn2COC(CO)CO)c(=O)[nH]1 [Ganciclovir]	> 45.8 µM	> 45.8 µM
COc1c(N2CCNC(C)C2)c(F)cc2c(=O)c(C(=O)O)cn(C3CC3)c12 (stereo unspecified) [Gatifloxacin]	> 45.8 µM	> 45.8 µM
CC(C)=CCC/C(C)=C/CC/C(C)=C/CCC(=O)OC/C=C(\C)CCC=C(C)C [Gefarnate]	> 45.8 µM	> 45.8 µM
CO/N=C1\CN(c2nc3c(cc2F)c(=O)c(C(=O)O)cn3C2CC2)CC1CN (stereo unspecified) [Gemifloxacin mesylate]	> 45.8 µM	> 45.8 µM
CC(C)=CCC/C(C)=C/CO [Geraniol]	> 45.8 µM	> 45.8 µM
C#C[C@]1(O)C=C[C@H]2[C@@H]3CCC4=CC(=O)CC[C@@H]4[C@H]3CC[C@@]21CC [Gestodene]	> 45.8 µM	> 45.8 µM
CC(=O)[C@@]1(O)CC[C@H]2[C@@H]3CCC4=CC(=O)CC[C@@H]4[C@H]3CC[C@@]21C [Gestonorone]	> 45.8 µM	> 45.8 µM
Oc1cc(O)c(Cl)cn1 [Gimeracil]	> 45.8 µM	> 45.8 µM
O=C1O[C@H](CO)[C@@H](O)[C@H](O)[C@H]1O [Gluconolactone]	> 45.8 µM	> 45.8 µM
N[C@H]1C(O)O[C@H](CO)[C@@H](O)[C@@H]1O (stereo partly specified) [Glucosamine hydrochloride]	> 45.8 µM	> 45.8 µM
NC(=O)[C@H]1O[C@@H](O)[C@H](O)[C@@H](O)[C@@H]1O [Glucuronamide]	> 45.8 µM	> 45.8 µM
O=CCCCC=O [Glutaraldehyde]	> 45.8 µM	> 45.8 µM

The remaining lines, values ahead:

IC50 cell viability (ICRF193 0 nM)	IC50 cell viability (ICRF193 200 nM)	Structure (SMILES)
> 45.8 µM	> 45.8 µM	C=C1C[C@H]2[C@@H]3CCC4=CC(=O)C=C[C@]4(C)[C@@]3(F)[C@@H](O)C[C@]2(C)[C@@]1(O)C(=O)COC(C)=O [Fluprednidene acetate]
> 45.8 µM	> 45.8 µM	C[C@]12C=CC(=O)C=C1[C@@H](F)C[C@@H]1[C@@H]2[C@@H](O)C[C@@]2(C)[C@H]1CC[C@]2(O)C(=O)CO [Fluprednisolone]
> 45.8 µM	> 45.8 µM	CC(=O)OC(C)OC(=O)C(C)c1ccc(-c2ccccc2)c(F)c1 (stereo unspecified) [Flurbiprofen axetil]
> 45.8 µM	> 45.8 µM	CC(C(=O)O)c1ccc(-c2ccccc2)c(F)c1 (stereo unspecified) [Flurbiprofen]
> 45.8 µM	> 45.8 µM	CC(C)C(=O)Nc1ccc([N+](=O)[O-])c(C(F)(F)F)c1 [Flutamide]
> 45.8 µM	> 45.8 µM	CCC(=O)O[C@]1(C(=O)SCF)[C@H](C)C[C@H]2[C@@H]3C[C@H](F)C4=CC(=O)C=C[C@]4(C)[C@@]3(F)[C@@H](O)C[C@@]21C [Fluticasone propionate]
> 45.8 µM	> 45.8 µM	Nc1nc(=O)c2nc(CNc3ccc(C(=O)N[C@@H](CCC(=O)O)C(=O)O)cc3)cnc2[nH]1 [Folic acid]
> 45.8 µM	> 45.8 µM	CN(CC(=O)N1CCOCC1)Cc1c(Cl)cccc1NC(=O)c1ccccc1 [Fominoben hydrochloride]
> 45.8 µM	> 45.8 µM	COc1ccc(CC(C)NCC(O)c2ccc(O)c(NC=O)c2)cc1 (stereo unspecified) [Formoterol hemifumarate]
> 45.8 µM	> 45.8 µM	CC(C)CN(C[C@@H](OP(=O)(O)O)[C@H](Cc1ccccc1)NC(=O)O[C@H]1CCOC1)S(=O)(=O)c1ccc(N)cc1 [Fosamprenavir (Calcium Salt)]
> 45.8 µM	> 45.8 µM	CC/C(=C(/CC)c1ccc(OP(=O)(O)O)cc1)c1ccc(OP(=O)(O)O)cc1 [Fosfestrol tetrasodium]
> 45.8 µM	> 45.8 µM	O=P(O)(O)OC(Cn1cncn1)(Cn1cncn1)c1ccc(F)cc1F [Fosfluconazole]
> 45.8 µM	> 45.8 µM	O=C1NC(c2ccccc2)(c2ccccc2)C(=O)N1COP(=O)(O)O [Fosphenytoin]
> 45.8 µM	> 45.8 µM	CN[C@@H]1CCc2[nH]c3ccc(C(N)=O)cc3c2C1 [Frovatriptan succinate]
> 45.8 µM	> 45.8 µM	NS(=O)(=O)c1cc(C(=O)O)c(NCc2ccco2)cc1Cl [Furosemide]
> 45.8 µM	> 45.8 µM	CC(OC(=O)NCC1(CC(=O)O)CCCCC1)OC(=O)C(C)C (stereo unspecified) [GABAPENTIN ENACARBIL]
> 45.8 µM	> 45.8 µM	CCOC(=O)c1ccc(OC(=O)CCCCCNC(=N)N)cc1 [Gabexate mesilate]
> 45.8 µM	> 45.8 µM	C[C@H]1NCc2cc(-c3ccc4c(=O)c(C(=O)O)cn(C5CC5)c4c3OC(F)F)ccc21 [Garenoxacin mesylate hydrate]
> 45.8 µM	> 45.8 µM	Cc1ccc(C)c(OCCCC(C)(C)C(=O)O)c1 [Gemfibrozil]
> 45.8 µM	> 45.8 µM	O=C(OCC(O)CO)c1ccccc1Nc1ccnc2cc(Cl)ccc12 (stereo unspecified) [Glafenine hydrochloride]
> 45.8 µM	> 45.8 µM	Cc1ccc(S(=O)(=O)NC(=O)NN2CC3CCCC3C2)cc1 (stereo unspecified) [Gliclazide]
> 45.8 µM	> 45.8 µM	CCC1=C(C)CN(C(=O)NCCc2ccc(S(=O)(=O)NC(=O)N[C@H]3CC[C@H](C)CC3)cc2)C1=O [Glimepiride]
> 45.8 µM	> 45.8 µM	Cc1cnc(C(=O)NCCc2ccc(S(=O)(=O)NC(=O)NC3CCCCC3)cc2)cn1 [Glipizide]
> 45.8 µM	> 45.8 µM	COc1ccc2c(c1)C(=O)N(CCc1ccc(S(=O)(=O)NC(=O)NC3CCCCC3)cc1)C(=O)C2(C)C [Gliquidone]
> 45.8 µM	> 45.8 µM	COc1ccc(Cl)cc1C(=O)NCCc1ccc(S(=O)(=O)NC(=O)NC2CCCCC2)cc1 [Glybenclamide]
